# Tests used:
# [1] = Thermal stability measurement (TG/DTA weight reduction temperature); conditions: for Weight reduction temperature 5% / Weight reduction temperature 10% / Weight reduction temperature 20%: TG/DTA, air 200 mL/min, 10° C./min, 30° C. to 600° C.; for 5%, 10%, 20% weight reduction temperatures (thermal stability) higher than perfluoropolyether Z-DOL (Comparative Example 11C) by: difference to Z-DOL; for 5%, 10%, 20% weight reduction temperatures (thermal stability) higher than Z-TETRAOL (Comparative Example 12C) by: difference to Z-TETRAOL; for Thermal stability improved compared with perfluoropolyether Z-DOL or Z-TETRAOL by: difference to Z-DOL or Z-TETRAOL
# [2] = Solubility test of ionic liquid in fluorine-based solvent VERTREL XF; conditions: for Solubility to fluorine-based solvent: VERTREL XF [CF3(CHF)2CF2CF3], 25° C., ultrasonic 5 minutes, left 1 day, visual; for Dissolved or not in fluorine-based solvent: VERTREL XF
# Procedure: A solubility test was performed on the ionic liquid synthesized each of Examples and each of Comparative Examples using VERTREL XF [CF3(CHF)2CF2CF3] available from Du Pont-Mitsui Fluorochemicals Company, Ltd. as a fluorine-based solvent.
# The ionic liquid was added to the predetermined mass of VERTREL XF.
# Specifically, 0.5 parts by mass or 0.1 parts by mass of each ionic liquid was added to 100 parts by mass of VERTREL XF (25° C.).
# Note that, a case where the mixture was visually observed to be transparent, the ionic liquid was judged as being dissolved. A case where the mixture was not transparent or insoluble matter was observed, the ionic liquid was judged as not being dissolved (insoluble).
# The ionic liquid was dissolved when 0.5 parts by mass of the ionic liquid was added.
# The ionic liquid was not dissolved when 0.5 parts by mass of the ionic liquid was added, but the ionic liquid was dissolved when 0.1 parts by mass of the ionic liquid was added.
# The ionic liquid was not dissolved both when 0.5 parts by mass of the ionic liquid was added and when 0.1 parts by mass of the ionic liquid was added.
molecule,measurement,setting,value
"C[n+]1ccn(CCC(F)(F)C(F)(F)C(F)(F)C(F)(F)C(F)(F)C(F)(F)C(F)(F)C(F)(F)F)c1.O=S(=O)([N-]S(=O)(=O)C(F)(F)C(F)(F)C(F)(F)C(F)(F)F)C(F)(F)C(F)(F)C(F)(F)C(F)(F)F [Ex. 9A, bis(nonafluorobutanesulfonyl)imide-1-1′H,1′H,2′H,2′H-heptadecafluorodecyl-3-methylimidazolium]",Weight reduction temperature 5%,[1],350.3 °C
same,Weight reduction temperature 10%,[1],365.5 °C
same,Weight reduction temperature 20%,[1],381.3 °C
same,Solubility to fluorine-based solvent,[2],0.5% by mass or greater
same,Solubility to fluorine-based solvent,[2]; listed as Example 9A,≥ 0.5 % by mass
"tris(trifluoromethanesulfonyl)methide-6-octadecyl-1,8-diazabicyclo[5.4.0]-7-undecenium [Comp. Ex. 3A, reference compound]",Dissolved or not in fluorine-based solvent,[2],not dissolved
same,Solubility to fluorine-based solvent,[2],less than 0.1% by mass
CCCCCCCCCCCCCCCCCC[N+]1=C2CCCCCN2CCC1.O=S(=O)([O-])C(F)(F)F,Weight reduction temperature 5%,[1],319.2 °C
same,Weight reduction temperature 10%,[1],346.6 °C
same,Weight reduction temperature 20%,[1],389.0 °C
same,"5%, 10%, 20% weight reduction temperatures (thermal stability) higher than perfluoropolyether Z-DOL (Comparative Example 11C) by",[1],≥ 140 °C
same,"5%, 10%, 20% weight reduction temperatures (thermal stability) higher than Z-TETRAOL (Comparative Example 12C) by",[1],≥ 80 °C
nonafluorobutanesulfonic acid-N-octadecylpyrrolidinium,Weight reduction temperature 5%,[1],339.4 °C
same,Weight reduction temperature 10%,[1],359.0 °C
same,Weight reduction temperature 20%,[1],377.3 °C
same,Thermal stability improved compared with perfluoropolyether Z-DOL or Z-TETRAOL by,[1],≥ 95 °C
CCCCCCCCCCCCCCCCCCn1cc[n+](CCC[n+]2ccn(CCCCCCCCCCCCCCCCCC)c2)c1.O=S(=O)([N-]S(=O)(=O)C(F)(F)C(F)(F)C(F)(F)C(F)(F)F)C(F)(F)C(F)(F)C(F)(F)C(F)(F)F.O=S(=O)([N-]S(=O)(=O)C(F)(F)C(F)(F)C(F)(F)C(F)(F)F)C(F)(F)C(F)(F)C(F)(F)C(F)(F)F,Weight reduction temperature 5%,[1],352.3 °C
same,Weight reduction temperature 10%,[1],381.9 °C
same,Weight reduction temperature 20%,[1],401.4 °C
"CCCCCCCCCCCCCCCCCC[N+]1=C2CCCCCN2CCC1.O=S(=O)([N-]S(=O)(=O)C(F)(F)C(F)(F)C(F)(F)C(F)(F)F)C(F)(F)C(F)(F)C(F)(F)C(F)(F)F [Ex. 2A, bis(nonafluorobutanesulfonyl)imide-8-octadecyl-1,8-diazabicyclo[5.4.0]-7-undecenium]",Weight reduction temperature 5%,[1],341.1 °C
same,Weight reduction temperature 10%,[1],372.9 °C
same,Weight reduction temperature 20%,[1],396.3 °C
same,Thermal stability improved compared with perfluoropolyether Z-DOL or Z-TETRAOL by,[1],≥ 100 °C
same,Solubility to fluorine-based solvent,[2],0.5% by mass or greater
same,Solubility to fluorine-based solvent,[2]; listed as Example 2A,≥ 0.5 % by mass
CCCCCCCCCCCCCCCCCCC1CCCCN2CCCN=C12.O=S1(=O)NS(=O)(=O)C(F)(F)C(F)(F)C1(F)F (stereo not shown),Thermal stability compared to perfluoropolyether Z-DOL or Z-TETRAOL,[1],high
CCCCCCCCCCCCCCCCCCn1cc[n+](CCCCC[n+]2ccn(CCCCCCCCCCCCCCCCCC)c2)c1.O=S(=O)([N-]S(=O)(=O)C(F)(F)C(F)(F)C(F)(F)C(F)(F)F)C(F)(F)C(F)(F)C(F)(F)C(F)(F)F.O=S(=O)([N-]S(=O)(=O)C(F)(F)C(F)(F)C(F)(F)C(F)(F)F)C(F)(F)C(F)(F)C(F)(F)C(F)(F)F,Weight reduction temperature 5%,[1],360.1 °C
same,Weight reduction temperature 10%,[1],384.4 °C
same,Weight reduction temperature 20%,[1],402.0 °C
same,"5%, 10%, 20% weight reduction temperatures (thermal stability) higher than perfluoropolyether Z-DOL (Comparative Example 11C) by",[1],≥ 170 °C
same,"5%, 10%, 20% weight reduction temperatures (thermal stability) higher than Z-TETRAOL (Comparative Example 12C) by",[1],≥ 120 °C
"tris(trifluoromethanesulfonyl)methide-6-octadecyl-1,8-diazabicyclo[5.4.0]-7-undecenium",Thermal stability compared to perfluoropolyether Z-DOL or Z-TETRAOL,[1],high
same,Weight reduction temperature 5%,[1],354.9 °C
same,Weight reduction temperature 10%,[1],385.0 °C
same,Weight reduction temperature 20%,[1],404.3 °C
"heptadecafluorooctanesulfonic acid-7-octadecyl-1,5,7-triazabicyclo[4.4.0]-5-decenium [Comp. Ex. 5A, reference compound]",Dissolved or not in fluorine-based solvent,[2],not dissolved
same,Solubility to fluorine-based solvent,[2],less than 0.1% by mass
CCCCCCCCCCCCCCCCCCN1CCCC1.O=S1(=O)NS(=O)(=O)C(F)(F)C(F)(F)C1(F)F,Thermal stability compared to perfluoropolyether Z-DOL or Z-TETRAOL,[1],high
CCCCCCCCCCCCCCCCCCn1cc[n+](CCC[n+]2ccn(CCCCCCCCCCCCCCCCCC)c2)c1.O=S(=O)([N-]S(=O)(=O)C(F)(F)C(F)(F)C(F)(F)C(F)(F)F)C(F)(F)C(F)(F)C(F)(F)C(F)(F)F.O=S(=O)([N-]S(=O)(=O)C(F)(F)C(F)(F)C(F)(F)C(F)(F)F)C(F)(F)C(F)(F)C(F)(F)C(F)(F)F [Ex. 11A],Solubility to fluorine-based solvent,[2],0.5% by mass or greater
CCCCCCCCCCCCCCCCCCC1CCCCN2CCCN=C12.O=S(=O)(NS(=O)(=O)C(F)(F)C(F)(F)C(F)(F)C(F)(F)F)C(F)(F)C(F)(F)C(F)(F)C(F)(F)F,Weight reduction temperature 5%,[1],352.9 °C
same,Weight reduction temperature 10%,[1],378.2 °C
same,Weight reduction temperature 20%,[1],396.7 °C
same,"5%, 10%, 20% weight reduction temperatures (thermal stability) higher than perfluoropolyether Z-DOL (Comparative Example 11C) by",[1],≥ 100 °C
same,"5%, 10%, 20% weight reduction temperatures (thermal stability) higher than Z-TETRAOL (Comparative Example 12C) by",[1],≥ 50 °C
CCCCCCCCCCCCCCCCCCn1cc[n+](CCCCCCCCC[n+]2ccn(CCCCCCCCCCCCCCCCCC)c2)c1.O=S(=O)([N-]S(=O)(=O)C(F)(F)C(F)(F)C(F)(F)C(F)(F)F)C(F)(F)C(F)(F)C(F)(F)C(F)(F)F.O=S(=O)([N-]S(=O)(=O)C(F)(F)C(F)(F)C(F)(F)C(F)(F)F)C(F)(F)C(F)(F)C(F)(F)C(F)(F)F,"5%, 10%, 20% weight reduction temperatures (thermal stability) higher than perfluoropolyether Z-DOL (Comparative Example 11C) by",[1],≥ 170 °C
same,"5%, 10%, 20% weight reduction temperatures (thermal stability) higher than Z-TETRAOL (Comparative Example 12C) by",[1],≥ 110 °C
"heptadecafluorooctanesulfonic acid-6-octadecyl-1,8-diazabicyclo[5.4.0]-7-undecenium [Comp. Ex. 2A, reference compound]",Solubility to fluorine-based solvent,[2],less than 0.1% by mass
CCCCCCCCCCCCCCCCCCN1CCCN2CCCN=C12.O=S1(=O)NS(=O)(=O)C(F)(F)C(F)(F)C1(F)F,Thermal stability compared to perfluoropolyether Z-DOL or Z-TETRAOL,[1],high
"CCCCCCCCCCCCCCCCCC[N+]1=C2CCCCCN2CCC1.O=S(=O)([O-])C(F)(F)F [Ex. 7A, trifluoromethanesulfonic acid-8-octadecyl-1,8-diazabicyclo[5.4.0]-7-undecenium]",Solubility to fluorine-based solvent,[2],0.5% by mass or greater
same,Solubility to fluorine-based solvent,[2]; listed as Example 7A,≥ 0.5 % by mass
CCCCCCCCCCCCCCCCCC[n+]1ccn(CCC(F)(F)C(F)(F)C(F)(F)C(F)(F)C(F)(F)C(F)(F)C(F)(F)C(F)(F)F)c1.O=S(=O)([N-]S(=O)(=O)C(F)(F)C(F)(F)C(F)(F)C(F)(F)F)C(F)(F)C(F)(F)C(F)(F)C(F)(F)F,"5%, 10%, 20% weight reduction temperatures (thermal stability) higher than perfluoropolyether Z-DOL (Comparative Example 11C) by",[1],≥ 150 °C
same,"5%, 10%, 20% weight reduction temperatures (thermal stability) higher than Z-TETRAOL (Comparative Example 12C) by",[1],≥ 90 °C
nonafluorobutanesulfonic acid-N-octadecylpyrrolidinium [Ex. 6A],Dissolved or not in fluorine-based solvent,[2],could be dissolved
C[n+]1ccn(CCC(F)(F)C(F)(F)C(F)(F)C(F)(F)C(F)(F)C(F)(F)C(F)(F)C(F)(F)F)c1.O=S(=O)([N-]S(=O)(=O)C(F)(F)C(F)(F)C(F)(F)C(F)(F)F)C(F)(F)C(F)(F)C(F)(F)C(F)(F)F,"5%, 10%, 20% weight reduction temperatures (thermal stability) higher than perfluoropolyether Z-DOL (Comparative Example 11C) by",[1],≥ 150 °C
same,"5%, 10%, 20% weight reduction temperatures (thermal stability) higher than Z-TETRAOL (Comparative Example 12C) by",[1],≥ 90 °C
"heptadecafluorooctanesulfonic acid-6-octadecyl-1,8-diazabicyclo[5.4.0]-7-undecenium",Thermal stability compared to perfluoropolyether Z-DOL or Z-TETRAOL,[1],high
same,Weight reduction temperature 5%,[1],361.9 °C
same,Weight reduction temperature 10%,[1],382.7 °C
same,Weight reduction temperature 20%,[1],403.5 °C
"CCCCCCCCCCCCCCCCCCn1cc[n+](CCCCC[n+]2ccn(CCCCCCCCCCCCCCCCCC)c2)c1.O=S(=O)([N-]S(=O)(=O)C(F)(F)C(F)(F)C(F)(F)C(F)(F)F)C(F)(F)C(F)(F)C(F)(F)C(F)(F)F.O=S(=O)([N-]S(=O)(=O)C(F)(F)C(F)(F)C(F)(F)C(F)(F)F)C(F)(F)C(F)(F)C(F)(F)C(F)(F)F [Comp. Ex. 9A, 1,5-bis[bis(nonafluorobutanesulfonyl)imide-1-octadecylimidazolium]pentane, reference compound]",Solubility to fluorine-based solvent,[2],less than 0.1% by mass
CCCCCCCCCCCCCCCCCC[N+]1(CCCC)CCCC1.O=S(=O)([N-]S(=O)(=O)C(F)(F)C(F)(F)C(F)(F)C(F)(F)F)C(F)(F)C(F)(F)C(F)(F)C(F)(F)F,Thermal stability improved compared with perfluoropolyether Z-DOL or Z-TETRAOL by,[1],≥ 90 °C
CCCCCCCCCCCCCCCCCC[n+]1ccn(CCCC)c1.O=S(=O)([N-]S(=O)(=O)C(F)(F)C(F)(F)C(F)(F)C(F)(F)F)C(F)(F)C(F)(F)C(F)(F)C(F)(F)F,Thermal stability compared to perfluoropolyether Z-DOL or Z-TETRAOL,[1],high
CCCCCCCCCCCCCCCCCCN1CCCC1.O=S(=O)(NS(=O)(=O)C(F)(F)C(F)(F)C(F)(F)C(F)(F)F)C(F)(F)C(F)(F)C(F)(F)C(F)(F)F,Thermal stability improved compared with perfluoropolyether Z-DOL or Z-TETRAOL by,[1],≥ 70 °C
"CCCCCCCCCCCCCCCCCC[n+]1ccn(CCC(F)(F)C(F)(F)C(F)(F)C(F)(F)C(F)(F)C(F)(F)C(F)(F)C(F)(F)F)c1.O=S(=O)([N-]S(=O)(=O)C(F)(F)C(F)(F)C(F)(F)C(F)(F)F)C(F)(F)C(F)(F)C(F)(F)C(F)(F)F [Ex. 8A, bis(nonafluorobutanesulfonyl)imide-1-1′H,1′H,2′H,2′H-heptadecafluorodecyl-3-octadecylimidazolium]",Weight reduction temperature 5%,[1],335.8 °C
same,Weight reduction temperature 10%,[1],358.5 °C
same,Weight reduction temperature 20%,[1],377.7 °C
"heptadecafluorooctanesulfonic acid-7-octadecyl-1,5,7-triazabicyclo[4.4.0]-5-decenium",Thermal stability compared to perfluoropolyether Z-DOL or Z-TETRAOL,[1],high
same,Weight reduction temperature 5%,[1],356.1 °C
same,Weight reduction temperature 10%,[1],380.4 °C
same,Weight reduction temperature 20%,[1],401.5 °C
